Results: patent EP0451130A2, “Use of amiloride and other pyrazine derivatives for preventing or treating ocular neovascularization” (priority 1990, dated 1991)

Key:
human uPA = target: T1, human uPA (Homo sapiens, UniProt P00749); test: in vitro uPA chromogenic substrate assay (glutaryl-glycyl-arginyl-p-nitroanilide, absorbance 405nm); assay type: biochemical; settings: for inhibition at 20 µM: read-out: % INHIBITION OF uPA ACTIVITY 20 mM INHIBITOR; for inhibition at 100 µM: read-out: % INHIBITION OF uPA ACTIVITY 100 mM INHIBITOR
T1 construct: purchased
Text: The values for the relative inhibitions contained in Table III are obtained by the following procedure.
An in vitro assay employs a commercially available synthetic chromogenic substrate, glutaryl-glycyl-arginyl-p-nitroanilide, and a commercially available human uPA. The uPA catalyzes the hydrolysis of the bond between the arginyl and p-nitroanilide moieties. The p-nitroaniline released upon hydrolysis of the substrate absorbs light at a wavelength of 405nm. The enzymatic activity is quantitated as a function of the increase in the absorbance of the solution at 405nm as measured with a spectrophotometer.
In order to obtain the data, stock solutions of the amiloride-related pyrazine derivative compounds were included in the assays, and the release of p-nitroaniline as followed by the change in absorbance at 405nm of the reaction mixture was compared to a control reaction mixture in which no amiloride-related pyrazine derivative compound was present.

circulating cancer cells = settings: continuously administered orally to rats, result in words; cited from earlier work
thrombin = thrombin (Homo sapiens, UniProt P00734); settings: in vitro, result in words; cited from earlier work
plasmin = plasmin (Homo sapiens, UniProt P00747); settings: in vitro, result in words; cited from earlier work
plasmin, sequence (P00747 97-580): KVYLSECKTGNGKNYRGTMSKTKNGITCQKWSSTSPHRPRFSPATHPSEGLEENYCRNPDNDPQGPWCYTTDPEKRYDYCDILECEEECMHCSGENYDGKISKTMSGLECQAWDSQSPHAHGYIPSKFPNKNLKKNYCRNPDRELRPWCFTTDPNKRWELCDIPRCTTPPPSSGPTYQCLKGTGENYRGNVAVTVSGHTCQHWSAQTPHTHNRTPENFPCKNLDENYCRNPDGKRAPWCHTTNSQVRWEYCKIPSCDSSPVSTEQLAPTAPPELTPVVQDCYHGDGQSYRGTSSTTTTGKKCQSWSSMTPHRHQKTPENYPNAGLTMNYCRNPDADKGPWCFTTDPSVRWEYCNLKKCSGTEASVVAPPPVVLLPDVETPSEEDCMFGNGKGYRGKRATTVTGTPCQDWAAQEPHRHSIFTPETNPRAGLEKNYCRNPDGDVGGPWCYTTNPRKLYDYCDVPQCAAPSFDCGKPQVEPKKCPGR
plasmin, sequence (P00747 581-810): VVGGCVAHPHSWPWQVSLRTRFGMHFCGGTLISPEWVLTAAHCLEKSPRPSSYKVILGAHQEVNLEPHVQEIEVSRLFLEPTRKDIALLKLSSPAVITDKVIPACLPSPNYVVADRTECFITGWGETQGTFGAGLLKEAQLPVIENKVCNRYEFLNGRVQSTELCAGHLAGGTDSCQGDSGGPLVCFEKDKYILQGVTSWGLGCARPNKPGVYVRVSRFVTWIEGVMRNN

Corneal Vessels = test: rabbit corneal neovascularization model (PGE1 slow release pellet, amiloride agarose pellet implant); assay type: in vivo; settings: result in words
Text: A series of experiments have been conducted employing a rabbit model.

[1] = target: tissue-type plasminogen activator (tPA) (Homo sapiens, UniProt P00750); settings: in vitro, result in words; cited from earlier work
tissue-type plasminogen activator (tPA), sequence (P00750 36-562, species assumed): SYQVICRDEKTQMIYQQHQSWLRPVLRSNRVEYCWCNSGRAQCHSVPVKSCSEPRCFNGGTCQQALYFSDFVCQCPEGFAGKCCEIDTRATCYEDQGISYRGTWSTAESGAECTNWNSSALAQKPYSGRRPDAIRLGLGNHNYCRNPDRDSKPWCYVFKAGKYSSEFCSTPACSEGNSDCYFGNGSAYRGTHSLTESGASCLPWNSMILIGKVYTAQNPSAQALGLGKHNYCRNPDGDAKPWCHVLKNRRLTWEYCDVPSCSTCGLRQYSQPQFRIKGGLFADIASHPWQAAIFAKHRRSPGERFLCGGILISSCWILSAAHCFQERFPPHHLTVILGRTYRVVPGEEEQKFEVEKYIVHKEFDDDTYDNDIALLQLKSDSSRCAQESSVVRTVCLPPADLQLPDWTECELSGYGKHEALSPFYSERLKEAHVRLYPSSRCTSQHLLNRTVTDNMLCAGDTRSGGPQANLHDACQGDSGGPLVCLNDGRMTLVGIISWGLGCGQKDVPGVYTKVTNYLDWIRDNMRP

plasma kallikrein = plasma kallikrein (Homo sapiens, UniProt P03952); settings: in vitro, result in words; cited from earlier work
plasma kallikrein, sequence (P03952 20-638, species assumed): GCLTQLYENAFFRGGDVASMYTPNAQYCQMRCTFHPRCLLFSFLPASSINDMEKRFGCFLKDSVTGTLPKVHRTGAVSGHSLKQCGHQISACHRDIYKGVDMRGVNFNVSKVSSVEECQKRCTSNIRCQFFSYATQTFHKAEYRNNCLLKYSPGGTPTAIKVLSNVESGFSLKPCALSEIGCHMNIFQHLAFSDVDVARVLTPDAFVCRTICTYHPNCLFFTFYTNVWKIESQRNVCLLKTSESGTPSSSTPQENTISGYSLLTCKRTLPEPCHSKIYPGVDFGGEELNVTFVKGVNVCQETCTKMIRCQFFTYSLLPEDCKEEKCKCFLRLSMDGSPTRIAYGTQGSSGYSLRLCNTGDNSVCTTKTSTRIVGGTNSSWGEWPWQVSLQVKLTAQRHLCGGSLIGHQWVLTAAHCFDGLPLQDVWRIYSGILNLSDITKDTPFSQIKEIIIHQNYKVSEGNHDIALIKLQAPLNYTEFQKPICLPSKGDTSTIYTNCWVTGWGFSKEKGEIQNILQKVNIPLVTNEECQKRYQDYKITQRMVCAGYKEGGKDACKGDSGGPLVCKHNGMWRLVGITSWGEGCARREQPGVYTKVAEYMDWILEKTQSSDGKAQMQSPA

Which inhibition at 20 µM (human uPA) does the source give for `CN(CC(=O)N=C(N)N)c1nc(N)c(C(=O)N=C(N)N)nc1Cl` [MGCMA, 3-amino-6-chloro-5-[N-methyl-N-(guanidinocarbonylmethylamino)]-N(diaminomethylene)pyrazine carboxamide] here?
The inhibition at 20 µM was 29.1%.

And the inhibition at 100 µM (human uPA)?
The inhibition at 100 µM was 43%.

For `NC(N)=NC(=O)c1ncc(N)nc1N` [Compound 6-HA, 3,5-diamino-N-(diaminomethylene)pyrazinecarboxamide], which inhibition at 20 µM (human uPA) is on record?
The inhibition at 20 µM was 15.3%.

And the inhibition at 100 µM (human uPA)?
Its inhibition at 100 µM is 38.2%.

For `NC(N)=NC(=O)c1nc(Br)cnc1N` [Compound 6-Br-5-HA, 3-amino-6-bromo-N--(diaminomethylene)pyrazinecarboxamide], which inhibition at 20 µM (human uPA) is on record?
The inhibition at 20 µM was 1%.

What about the inhibition at 100 µM (human uPA) of the same compound?
Its inhibition at 100 µM is 7.7%.

For `CN(C)c1nc(N)c(C(=O)N=C(N)N)nc1Cl` [DMA, 3-amino-5-dimethylamino-6-chloro-N--(diaminomethylene)pyrazinecarboxamide], which inhibition at 20 µM (human uPA) is on record?
Its inhibition at 20 µM is 41.1%.

And the inhibition at 100 µM (human uPA)?
The inhibition at 100 µM was 48.3%.

Which results are given for `NC(N)=NC(=O)c1nccnc1N` [5,6-HA, 3-amino-N-(diaminomethylene)pyrazinecarboxamide]?
inhibition at 20 µM (human uPA): 2.1%; inhibition at 100 µM (human uPA): 11.1%

What does the source list for `NC(=Nc1ccccc1)NC(=O)c1nc(Cl)c(N)nc1N` [PHENAMIL, 3,5-diamino-6-chloro-N--(phenylaminoaminomethylene)pyrazinecarboxamide]?
inhibition at 20 µM (human uPA): 1.7%; inhibition at 100 µM (human uPA): 5.5%

What does the source list for `NC(=NCc1ccccc1)NC(=O)c1nc(Cl)c(N)nc1N` [BENZAMIL, 3,5-diamino-6--chloro-N-(benzylaminoaminomethylene)pyrazinecarboxamide]?
inhibition at 20 µM (human uPA): 1.2%; inhibition at 100 µM (human uPA): 7.7%

Which results are given for `Cc1ccc(CNC(=N)NC(=O)c2nc(Cl)c(NCc3ccc(Cl)cc3)nc2N)c(C)c1` [CBDMB, 3-amino-5-(N-4-chlorobenzylamino)-6-chloro-N-[(2,4-dimethylbenzyl)aminoaminomethylene]pyrazinecarboxamide]?
inhibition at 20 µM (human uPA): 41.7%; inhibition at 100 µM (human uPA): 63.4%

Which inhibition at 20 µM (human uPA) does the source give for `NC(N)=NC(=O)c1nc(Cl)c(N2CCCCCC2)nc1N` [HMA, 3-amino-5-(1-homopiperidinyl)-6--chloro-N-(diaminomethylene)pyrazinecarboxamide] here?
The inhibition at 20 µM was 51.1%.

What about the inhibition at 100 µM (human uPA) of the same compound?
Its inhibition at 100 µM is 77%.

For `NC(N)=NC(=O)c1nc(I)c(N)nc1N` [Compound 6-IA, 3,5-diamino-6-iodo-N-(diaminomethylene)pyrazinecarboxamide], which “% INHIBITION OF uPA ACTIVITY 20 mM INHIBITOR” value (human uPA; 20 mM INHIBITOR) is on record?
The value was 64.4%.

What about the “% INHIBITION OF uPA ACTIVITY 100 mM INHIBITOR” value (human uPA; 100 mM INHIBITOR) of the same compound?
Its value is 83.9%.

What does the source list for `CC(C)CN(C)c1nc(N)c(C(=O)N=C(N)N)nc1Cl` [MIBA, 3-amino--5-(N-methyl-N-isobutylamino)-6-chloro-N-(diaminomethylene)pyrazinecarboxamide]?
inhibition at 20 µM (human uPA): 18.7%; inhibition at 100 µM (human uPA): 57.3%

What does the source list for `NC(N)=NC(=O)c1nc(Cl)c(Cl)nc1N` [Compound 5-ClA, 3--amino-5,6-dichloro-N-(diaminomethylene)pyrazinecarboxamide]?
inhibition at 20 µM (human uPA): 5%; inhibition at 100 µM (human uPA): 20.7%

For `NC(N)=NC(=O)c1nc(F)c(N)nc1N` [Compound 6-FA, 3,5-diamino-6-fluoro-N-(diaminomethylene)pyrazinecarboxamide], which inhibition at 20 µM (human uPA) is on record?
The inhibition at 20 µM was 7.1%.

And the inhibition at 100 µM (human uPA)?
Its inhibition at 100 µM is 27.9%.

For `CN(C)c1nc(N)c(C(=O)N=C(N)N)nc1I` [IDMA, 3-amino-5-(N,N-dimethylamino)-6-iodo-N--(diaminomethylene)pyrazinecarboxamide], which inhibition at 20 µM (human uPA) is on record?
Its inhibition at 20 µM is 40.3%.

And the inhibition at 100 µM (human uPA)?
The inhibition at 100 µM was 73.1%.

With `NC(N)=NNC(=O)c1nc(Cl)c(N)nc1N` [MK-875, 3,5-diamino-6-chloro-N²--(diaminomethylene)pyrazinecarbonyl hydrazide] as the compound, how does the inhibition at 20 µM (human uPA) read?
The inhibition at 20 µM was 1.9%.

And the inhibition at 100 µM (human uPA)?
Its inhibition at 100 µM is 7.3%.

Which results are given for `NC(N)=NC(=O)c1nc(Br)c(N)nc1N` [Compound 6-BrA, 3,5-diamino-6-bromo-N-(diaminomethylene)pyrazinecarboxamide]?
inhibition at 20 µM (human uPA): 65.6%; inhibition at 100 µM (human uPA): 69.9%

For `CCN(c1nc(N)c(C(=O)N=C(N)N)nc1Cl)C(C)C` [EIPA, 3-amino-5-(N-ethyl-N--isopropylamino)-6-chloro-N-(diaminomethylene)pyrazinecarboxamide], which inhibition at 20 µM (human uPA) is on record?
Its inhibition at 20 µM is 28.3%.

And the inhibition at 100 µM (human uPA)?
The inhibition at 100 µM was 56%.

With `N=C(N)NC(=O)c1nc(Cl)c(N)nc1N` [Amiloride, 3,5-diamino-6-chloro-N--(diaminomethylene)pyrazinecarboxamide] as the compound, how does the “inhibition of metastasis into the lung” value (circulating cancer cells) read?
The value was “inhibited the metastasis of circulating cancer cells into the lung of the rat”.

And the inhibition of thrombin (thrombin)?
Its inhibition of thrombin is “does not inhibit”.

And the inhibition of plasmin (plasmin)?
Its inhibition of plasmin is “does not inhibit”.

And the inhibition of neovascularization (Corneal Vessels; amiloride-HCl·2H₂O agarose pellets in rabbit cornea)?
Its inhibition of neovascularization is “inhibited neovascularization in a dose dependent manner”.

What about the “reversal of neovascularization already produced” value (Corneal Vessels) of the same compound?
Its value is “reverse a portion of the neovascularization that had already been produced”.

And the “inhibition of tissue-type plasminogen activator (tPA)” value [1]?
The value was “does not inhibit”.

What about the “inhibition of plasma kallikrein” value (plasma kallikrein) of the same compound?
Its value is “does not inhibit”.
